This passage reports IC50 results from EP0394982A2, “Anthracycline derivatives with cytostatic activity” (BEHRINGWERKE Aktiengesellschaft, priority 1989, dated 1990).

≈ marks a conversion by molar mass, not a printed value. Like-named read-outs stand apart in the source and are kept apart here.

This experiment concerns L1210 Leukämiezellen. As to the kind of experiment: Colony formation of L1210 leukemia cells in soft agar (cytotoxicity in vitro). The class given is cell-based, Maus. The following applies: Mus musculus, colonies > 60 µm counted. The text has this:
Die zytostatische Wirksamkeit der erfindungsgemäßen Verbindungen wurde anhand von L1210 Leukämiezellen der Maus getestet. Hierzu wurde die Koloniebildung von L1210 Leukämiezellen in Agarplatten herangezogen. Diese Methode dient zum Nachweis des Einflusses der Testsubstanzen auf das Wachstumsverhalten der Zellen über 1 Stunde oder über mehrere Generationen. Bei einer Zellzykluszeit von 10-12 Stunden werden dabei in der Testzeit von 7 Tagen etwa 14 aufeinanderfolgende Generationen beobachtet. Die erfindungsgemäßen zytostatisch wirksamen Substanzen bewirken in diesem Test eine Reduktion der zu beobachtenden Koloniezahl gegenüber einer unbehandelten Kontrollprobe.
Verfahrensweise zur Ermittlung der Koloniebildung von L1210 Leukämiezellen in Soft-Agar
500 Leukämiezellen pro Platte wurden mit unterschiedlichen Konzentrationen der Testsubstanz 1 Stunde bei 37°C inkubiert. Anschließend wurden die Zellen zweimal mit McCoy5A-Medium gewaschen und schließlich in Petrischalen nach Zugabe von 0,3 % Agar ausgegossen. Kontrollen wurden lediglich mit frischem Medium inkubiert. Anstelle der einstündigen Inkubation wurden in manchen Fällen unterschiedliche Konzentrationen und Testsubstanzen der oberen Agarschicht zugemischt, um so eine kontinuierliche Exposition der Zellen über die gesamte Inkubationszeit zu erreichen. Nach Erstarren des Agars wurden die Platten im Brutschrank 7 Tage bei 37°C inkubiert (5 Vol.-% CO₂, 95 % relative Luftfeuchtigkeit). Anschließend wurde die Zahl der entstandenen Kolonien mit einem Durchmesser von mehr als 60 µm gezählt. Die Ergebnisse wurden angegeben als Koloniezahl in behandelten Agarplatten in Prozent der unbehandelten Kontrolle. Aus der so erhaltenen Dosiswirkungskurve wurde die IC₅₀ als Maß für die Wirksamkeit der Substanz ermittelt. Die Ergebnisse für die hier beschriebenen Verbindungen im Vergleich zu Adriamycin sind in Tabelle 1 zusammengefaßt.

[1] abbreviates: L1210, 168 h, continuous exposure (substance mixed into upper agar layer), 7 days at 37°C, read-out: Dauerinkubation IC50.
[2] abbreviates: L1210, 1 h incubation at 37°C, cells washed, then 7 days in agar, read-out: 1h-Inkubation IC50.

On to `CC[C@@]1(O)C[C@H](O[C@H]2C[C@H](N(C)CC(=O)NCCN(C)C)[C@H](O)[C@H](C)O2)c2c(O)c3c(c(O)c2[C@H]1O)C(=O)c1cccc(O)c1C3=O` [Beispiel 3], for which the IC50 reads like this: under setting [1], 0.12 µg/mL (≈ 0.182 µM); under setting [2], 0.26 µg/mL (≈ 0.395 µM).

With `CC[C@@]1(O)C[C@H](O[C@H]2C[C@H](N(C)CC(=O)NCCc3c[nH]c4ccccc34)[C@H](O)[C@H](C)O2)c2c(O)c3c(c(O)c2[C@H]1O)C(=O)c1cccc(O)c1C3=O` [Beispiel 7, 7-O-(3′-N-Methyl-3′-N-tryptaminocarbonylmethyl-α-L-daunosaminyl)-β-rhodomycinon], the IC50 runs as follows: under setting [1], 0.36 µg/mL (≈ 0.493 µM); under setting [2], 1.2 µg/mL (≈ 1.64 µM).

Consider `CC[C@@]1(O)C[C@H](O[C@H]2C[C@H](N(C)CC(=O)NCCN)[C@H](O)[C@H](C)O2)c2c(O)c3c(c(O)c2[C@H]1O)C(=O)c1cccc(O)c1C3=O` [Beispiel 2, 7-0-(3′-N-Ethylendiaminocarbonylmethyl-3′-N-methyl-α-L-daunosaminyl)-β-rhodomycinon], for which the IC50 reads like this: under setting [1], 0.35 µg/mL (≈ 0.556 µM); under setting [2], 1 µg/mL (≈ 1.59 µM).

For `CC[C@@]1(O)C[C@H](O[C@H]2C[C@H](N(C)CC(=O)NCCCCN)[C@H](O)[C@H](C)O2)c2c(O)c3c(c(O)c2[C@H]1O)C(=O)c1cccc(O)c1C3=O` [Beispiel 4], the IC50 by setting is: under setting [1], 0.35 µg/mL (≈ 0.532 µM); under setting [2], 1.3 µg/mL (≈ 1.98 µM).

For the compound `CC[C@@]1(O)C[C@H](O[C@H]2C[C@H](N(C)CC(=O)NN)[C@H](O)[C@H](C)O2)c2c(O)c3c(c(O)c2[C@H]1O)C(=O)c1cccc(O)c1C3=O` [Beispiel 1, 7-0-(3′-N-Hydrazinocarbonylmethyl-3′-N-methyl-α-L-daunosaminyl)-β-rhodomycinon], the IC50 amounted to 0.32 µg/mL (≈ 0.532 µM) under setting [1] and 0.21 µg/mL (≈ 0.349 µM) under setting [2].

Regarding `CC[C@@]1(O)C[C@H](O[C@H]2C[C@H](N(C)CC(=O)NCCc3ccc(O)cc3)[C@H](O)[C@H](C)O2)c2c(O)c3c(c(O)c2[C@H]1O)C(=O)c1cccc(O)c1C3=O` [Beispiel 6, 7-O-(3′-N-Methyl-3′-N-tyraminocarbonylmethyl-α-L-daunosaminyl)-β-rhodomycinon], the IC50 under setting [1] was 0.41 µg/mL (≈ 0.58 µM) and the IC50 under setting [2] came out at 1.3 µg/mL (≈ 1.84 µM).

`CC[C@@]1(O)C[C@H](O[C@H]2C[C@H](N(C)CC(=O)NCCc3c[nH]cn3)[C@H](O)[C@H](C)O2)c2c(O)c3c(c(O)c2[C@H]1O)C(=O)c1cccc(O)c1C3=O` [Beispiel 5, 7-O-(3′-N-Histaminocarbonylmethyl-3′-N-methyl-α-L-daunosaminyl)-β-rhodomycinon]: the IC50 runs as follows: under setting [1], 0.31 µg/mL (≈ 0.455 µM); under setting [2], 1 µg/mL (≈ 1.47 µM).
